In patent US11214538B2, “Farnesoid X receptor agonists and uses thereof” (Metacrine, Inc., priority 2015, dated 2022):

Experiments:
hFXR [1] = molecular target: T1, hFXR (Homo sapiens, UniProt Q96RI1); experiment: In Vitro FXR Assay (PGL3), luciferase reporter in transfected CV-1 cells; assay type: cell-based; conditions: CV-1 cells transfected with hFXR, hRXR, PGL3-ECRE*6-luc; 18 hrs incubation; luminescence
T1 construct: expressed in transfected cells; host or cells: CV-1 cells
T1 sequence (Q96RI1 1-486): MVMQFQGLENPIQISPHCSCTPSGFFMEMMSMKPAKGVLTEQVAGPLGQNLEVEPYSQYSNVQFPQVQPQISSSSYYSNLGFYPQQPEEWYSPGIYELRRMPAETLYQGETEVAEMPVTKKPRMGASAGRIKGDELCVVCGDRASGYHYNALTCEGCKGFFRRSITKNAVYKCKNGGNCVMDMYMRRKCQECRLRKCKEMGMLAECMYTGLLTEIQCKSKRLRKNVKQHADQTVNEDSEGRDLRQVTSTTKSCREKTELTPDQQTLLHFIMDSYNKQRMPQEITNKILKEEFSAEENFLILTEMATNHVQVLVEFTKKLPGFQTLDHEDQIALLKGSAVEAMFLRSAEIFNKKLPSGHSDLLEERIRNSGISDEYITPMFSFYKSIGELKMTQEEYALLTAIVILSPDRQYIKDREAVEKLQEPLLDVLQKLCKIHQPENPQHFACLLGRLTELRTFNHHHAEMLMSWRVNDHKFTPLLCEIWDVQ
T1 sequence (P19793 1-462 partner): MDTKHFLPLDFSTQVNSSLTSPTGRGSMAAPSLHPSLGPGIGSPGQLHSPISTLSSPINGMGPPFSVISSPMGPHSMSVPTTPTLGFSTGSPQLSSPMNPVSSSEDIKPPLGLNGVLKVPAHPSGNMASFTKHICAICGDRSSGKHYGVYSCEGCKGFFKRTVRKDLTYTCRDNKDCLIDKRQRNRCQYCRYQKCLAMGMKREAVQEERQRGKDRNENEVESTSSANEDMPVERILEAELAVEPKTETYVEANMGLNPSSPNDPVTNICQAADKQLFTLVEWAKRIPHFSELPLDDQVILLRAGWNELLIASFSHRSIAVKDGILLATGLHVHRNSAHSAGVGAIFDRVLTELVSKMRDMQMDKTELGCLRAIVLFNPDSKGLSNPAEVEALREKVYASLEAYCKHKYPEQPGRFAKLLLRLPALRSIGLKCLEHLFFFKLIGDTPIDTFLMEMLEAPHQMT
Description: Example B-1: In Vitro FXR Assay (PGL3)
CV-1 cells were seeded at a density of 2,000,000 cells in a T175 flask with DMEM+10% charcoal double-stripped FBS and incubated at 37° C. in a 5% CO2 for 18 h (O/N).
After 18 h of incubation, the medium in the T175 flask was changed with fresh DMEM+10% charcoal super-stripped serum.
To prepare the transfection reaction mixture, the transfection reagent (X-tremeGENE HP from Roche, Cat #06 366 236 001) was added in to a 1.5 mL microcentrifuge tube labelled “A” at a ratio of 1:3 (DNA in g: transfection reagent in μL). OptiMEM medium (Life Technologies, Cat #31985-062) was added accordingly to provide a total volume of 1 mL. The transfection reaction mixture was then briefly vortexed and incubated at room temperature for 5 minutes.
In a separate 1.5 mL microcentrifuge tube labelled “B”, 100 μL OptiMEM and plasmids XPD90Gal pCMXhFXRfl, pCMXhRXRfl+PGL3-ECRE*6-luc+CMX-YFP in the ratio 2 g: 2 g:18 g:3 g were added. This microcentrifuge tube “B” was then briefly vortexed and incubated at room temperature for 5 minutes.
The total volume in tube labelled “A” was then transferred in to tube labelled “B.” The mixture was then briefly vortexed and the transfection:DNA complex was then incubated for about 15-20 minutes at room temperature.
Following incubation, the transfection reagent/DNA mixture complex was then added to cells in the T175 flask and the cells were incubated at […] (O/N) at 37° C. in 5% CO2.
In a 96 well plate, a half logarithmic serial dilution was prepared. OptiMEM was used as the diluent. Using any of one of the compounds described herein, a compound stock solution of 10 mM was prepared. An initial 1:100 dilution was made into the first well for a final concentration of 100 μM. The final concentrations in the 96-well plate was prepared by using a multichannel pipette to transfer 5 μL of the diluted compound to 384-well plate in quadruplicate.
Cells in T175 flask were trypsinized and cells were resuspending in 40 mL phenol red free DMEM+10% charcoal super-stripped FBS. Typically, one T175 flask was sufficient to seed two 384 well plates. CV-1 cells were seeded at 45 μL cell suspension/well using a multichannel pipet or a 384 multidrop dispenser. The cells were then incubated for 18 hrs, overnight.
After removing the plates from the incubator, the medium was flicked out of plate and 384 well plate was turned upside down onto paper towel. The remaining medium was gently tapped out. 15 μL lysis buffer was then added to each well using a multichannel pipet or a 384 well multi-drop dispenser. After incubation for 10 minutes at room temperature on shaker, 30 μL Luciferase buffer was added to each well. Luminescence counts were taken immediately using the Perkin Elmer Envision.
The ability of the compounds disclosed herein to […] FXR activity was quantified and the respective EC50 value was determined. Fex=fexaramine.

hFXR [2] = molecular target: T1, hFXR; experiment: In Vitro FXR Assay (TK), luciferase reporter in transfected CV-1 cells; assay type: cell-based; conditions: CV-1 cells transfected with hFXR, hRXR, TK-ECRE-luc; 18 hrs incubation; luminescence; compounds with a maximum efficacy of <25% of the Fexaramine control classified as '+'
Description: Example B-2: In Vitro FXR Assay (TK)
CV-1 cells were seeded at a density of 2,000,000 cells in a T175 flask with DMEM+10% charcoal double-stripped FBS and incubated at 37° C. in 5% CO2 for 18 h (O/N).
After 18 h of incubation, the medium in the T175 flask was changed with fresh DMEM+10% charcoal super-stripped serum. In a polypropylene tube, 2500 μL OptiMEM (Life Technologies, Cat #31985-062) was combined with expression plasmids for hFXR, hRXR, TK-ECRE-luc and pCMX-YFP. The tube was then briefly vortexed and incubated at room temperature for 5 minutes. Transfection reagent (X-tremeGENE HP from Roche, Cat #06 366 236 001) was added to the OptiMEM/plasmid mixture vortexed and incubated at room temperature for 20 minutes. Following incubation, the transfection reagent/DNA mixture complex was added to cells in the T175 flask and the cells were incubated at 37° C. in 5% CO2 for 18 h (O/N).
Compounds were serially diluted in DMSO and added to transfected CV-1 cells. The cells were then incubated for 18 hrs. The next day cells were lysed and examined for luminescence.

SMILES	Cmpd/Fex (ratio of the EC50 for the test compound relative to the EC50 of the Fexaramine control) (hFXR [1])	EC50 (hFXR [2])
CN(C)C(=O)/C=C/c1cccc(N(Cc2ccc(-c3ccc(N(C)C)cc3)cc2)C(=O)C2CCCCC2)c1 [Compound 13, (E)-N-(3-(3-(Dimethylamino)-3-oxoprop-1-en-1-yl)phenyl)-N-((4′-(dimethylamino)-[1,1′-biphenyl]-4-yl)methyl)cyclohexanecarboxamide]	+ (‘+’ means Cmpd/Fex >100)	≤ 3 µM
CN(C)c1ccc(-c2ccc(CN(C(=O)C3CCCCC3)c3cccc(/C=C/c4ncco4)c3)cc2)cc1 [Compound 14, (E)-N-((4′-(Dimethylamino)-[1,1′-biphenyl]-4-yl)methyl)-N-(3-(2-(oxazol-2-yl)vinyl)phenyl)cyclohexanecarboxamide]	+++ (‘+++’ means Cmpd/Fex <10)	≤ 3 µM
CN(C)c1ccc(-c2ccc(CN(C(=O)C3CCCCC3)c3cccc(-c4ccccc4)c3)cc2)cc1 [Compound 18, N-([1,1′-Biphenyl]-3-yl)-N-((4′-(dimethylamino)-[1,1′-biphenyl]-4-yl)methyl)cyclohexanecarboxamide]	+ (‘+’ means Cmpd/Fex >100)	3 to 10 µM
COc1cncc(-c2cccc(N(Cc3ccc(-c4ccc(N(C)C)cc4)cc3)C(=O)C3CCCCC3)c2)c1 [Compound 1, N-((4′-(Dimethylamino)-[1,1′-biphenyl]-4-yl)methyl)-N-(3-(5-methoxypyridin-3-yl)phenyl)cyclohexanecarboxamide]	+++ (‘+++’ means Cmpd/Fex <10)	≤ 3 µM
